In general, melting point refers to the temperature, or range, at which the solid turns liquid. Turning to `COC1OCC2C(=O)C3CCCCC3CC12` (stereo not shown) [Example 7, Decahydro-1-methoxy-naphtho[2,3-c]furan-4(1H)-one], the melting point fell in the range of 78 to 79 °C. Take `C=C1C2CCCCC2CC2C(OC)OCC12` (stereo not shown) [Example 8, Dodecahydro-1-methoxy-4-methylenenaphtho[2,3-c]furan]: the melting point was 53 to 55 °C. To `O=C1OCC2C1CC1CCCCC1C2O` (stereo not shown) [Example 5, Decahydro-4-hydoxy-naphtho[2,3-c]furan-1(3H)-one] belongs 149 to 150 °C; to `O=C1OCC2C3OC(C4=C3CCCC4)C12` (stereo not shown), 105 to 106 °C. `COC1OCC2C1CC1CCCCC1C2COC(=O)c1ccc(Br)cc1` (stereo not shown) [Example 10, Dodecahydro-4-(4-bromophenyl)carboxymethyl-1-methoxynaphtho[2,3-c]furan]: the melting point is 107 to 108 °C.

On to `COC1OCC2C(O)C3CCCCC3CC12` (stereo not shown) [Example 6, Dodecahydro-1-methoxy-naphtho[2,3-c]furan-4-ol], for which the melting point was 75 to 77 °C. In turn, `O=C1OCC2C3OC(C4CCCCC43)C12` (stereo not shown) came in with a melting point of 90 to 91 °C.

(Values after US20050124658A1, “Decahydronaphtho[2,3-c]furan derivatives” (Segami Chemical Research Center, priority 2001, published 2005).)
